Source: patent publication US8835476B2, “Synthesis of novel antimicrobials” (priority 2005, dated 2014)
Converted amounts (≈) assume the structure as drawn. Where two headings read alike, the source gives them in different places.

Experiments:
Type in all cases: cell-based
[1] = tested on: A. anitratus ATCC 19606; assay: Broth microdilution MIC, ATCC strains; settings: Acinetobacter calcoaceticus
Description: (§1) All clinical isolates tested were from The North American Urinary Tract Infection Collaborative Alliance (NAUTICA) which is a UTI surveillance study involving 40 medical centres (30 from the US and 10 from Canada). Each centre submitted up to 50 consecutive outpatient midstream urine isolates. All isolates were deemed significant urinary tract pathogens by individual laboratory criteria and identified to the species level by each laboratory's existing protocol. Isolates were transported to the coordinating laboratory (Health Sciences Centre, Winnipeg, Canada) on charcoal swabs. Only one isolate per patient was accepted. Upon receipt, isolates were cultured by the coordinating laboratory, stocked in skim milk, and stored at −80° C. awaiting reference antibiotic susceptibility testing. Elementary demographic information was also compiled for each isolate. Isolates were selected randomly from the above pool to represent 18 different species of Enterobacteriaceae and non-Enterobacteriaceae. An average of 5 strains of each species were tested for a total of 93 organisms. In addition, 23 reference (ATCC) [both gram negative and gram positive] strains were tested.
(§2) Susceptibilities to the compounds were determined using the National Committee for Clinical Laboratory Standards (NCCLS) M7-A6 broth microdilution method. […] DMSO controls were incorporated into the panel to mimic the quantity of DMSO used in dissolving some of the compounds at the higher concentrations. Each final panel well volume was 100 μl with a bacterial inoculum of 5×10^5 colony forming units (CFU)/ml. Panels were read following 16 to 20 hours of incubation at 35° C. in ambient air. The minimum inhibitory concentration (MIC) was defined as the lowest concentration of antimicrobial inhibiting visible growth. Quality control (QC) was performed using four ATCC QC organisms that were run with every batch set up to insure reproducibility.

[2] = tested on: B. cepacia ATCC 25416; assay: Broth microdilution MIC, ATCC strains; settings: Burkholderia cepacia
Description: as §1, §2

[3] = tested on: E. aerogenes ATCC 13048; assay: Broth microdilution MIC, ATCC strains; settings: Klebsiella aerogenes
Description: as §1, §2

[4] = tested on: E. coli ATCC 25922; assay: Broth microdilution MIC, ATCC strains; settings: for MIC: Escherichia coli
Description: as §1, §2

[5] = tested on: E. faecalis ATCC 29212; assay: Broth microdilution MIC, ATCC strains; settings: Enterococcus faecalis, read-out: MIC (growth inhibition, microdilution method)
Description: as §1, §2

[6] = tested on: K. oxytoca ATCC 49131; assay: Broth microdilution MIC, ATCC strains; settings: Klebsiella oxytoca
Description: as §1, §2

[7] = tested on: K. pneumoniae ATCC 13883; assay: Broth microdilution MIC, ATCC strains; settings: Klebsiella pneumoniae
Description: as §1, §2

[8] = tested on: MRSA ATCC 33591; assay: Broth microdilution MIC, ATCC strains; settings: Staphylococcus aureus; MRSA ATCC 33591; read-out: MIC (growth inhibition, microdilution method)
Description: as §1, §2

[9] = tested on: P. vulgaris ATCC 49132; assay: Broth microdilution MIC, ATCC strains; settings: Proteus vulgaris
Description: as §1, §2

[10] = tested on: Ps. aeruginosa ATCC 27853; assay: Broth microdilution MIC, ATCC strains; settings: Pseudomonas aeruginosa
Description: as §1, §2

[11] = tested on: S. aureus ATCC 29213; assay: Broth microdilution MIC, ATCC strains; settings: for MIC: Staphylococcus aureus, ATCC29213, S. aureus ATCC 29213, read-out: MIC (growth inhibition, microdilution method); for MIC (growth inhibition, microdilution method): S. aureus ATCC 29213
Description: as §1, §2

[12] = tested on: S. maltophilia ATCC 13637; assay: Broth microdilution MIC, ATCC strains; settings: Stenotrophomonas maltophilia
Description: as §1, §2

[13] = tested on: S. marcescens ATCC 8100; assay: Broth microdilution MIC, ATCC strains; settings: Serratia marcescens
Description: as §1, §2

[14] = tested on: A. baumanii clinical isolates; assay: Broth microdilution MIC, clinical isolate strains (NAUTICA); settings: clinical isolates, one table line per isolate; unit assumed
Description: as §1, §2

[15] = tested on: B. cepacia clinical isolates; assay: as above; settings: clinical isolates, one table line per isolate; unit assumed
Description: as §1, §2

[16] = tested on: C. amalonaticus clinical isolates; assay: as above; settings: clinical isolates, one table line per isolate; unit assumed
Description: as §1, §2

[17] = tested on: C. freundii clinical isolates; assay: as above; settings: clinical isolates, one table line per isolate; in µg/mL (unit assumed)
Description: as §1, §2

[18] = tested on: C. koseril clinical isolates; assay: as above; settings: clinical isolates, one table line per isolate; unit assumed
Description: as §1, §2

[19] = tested on: E. aerogenes clinical isolates; assay: as above; settings: clinical isolates, one table line per isolate; unit assumed
Description: as §1, §2

[20] = tested on: E. cloacae clinical isolates; assay: as above; settings: clinical isolates, one table line per isolate; unit assumed
Description: as §1, §2

[21] = tested on: E. coli clinical isolates; assay: as above; settings: clinical isolates, one table line per isolate; unit assumed
Description: as §1, §2

[22] = tested on: K. oxytoca clinical isolates; assay: as above; settings: clinical isolates, one table line per isolate; unit assumed
Description: as §1, §2

[23] = tested on: K. pneumoniae clinical isolates; assay: as above; settings: clinical isolates, one table line per isolate; unit assumed
Description: as §1, §2

[24] = tested on: M. morganii clinical isolates; assay: as above; settings: clinical isolates, one table line per isolate; unit assumed
Description: as §1, §2

[25] = tested on: P. mirabilis clinical isolates; assay: as above; settings: clinical isolates, one table line per isolate; unit assumed
Description: as §1, §2

[26] = tested on: P. retgerri clinical isolates; assay: as above; settings: clinical isolates, one table line per isolate; unit assumed
Description: as §1, §2

[27] = tested on: P. stuartii clinical isolates; assay: as above; settings: clinical isolates, one table line per isolate; unit assumed
Description: as §1, §2

[28] = tested on: P. vulgaris clinical isolates; assay: as above; settings: clinical isolates, one table line per isolate; unit assumed
Description: as §1, §2

[29] = tested on: S. liquifaciens clinical isolates; assay: as above; settings: clinical isolates, one table line per isolate; unit assumed
Description: as §1, §2

[30] = tested on: S. maltophilia clinical isolates; assay: as above; settings: clinical isolates, one table line per isolate; unit assumed
Description: as §1, §2

[31] = tested on: S. marcescens clinical isolates; assay: as above; settings: clinical isolates, one table line per isolate; unit assumed
Description: as §1, §2

[32] = ATCC29212, E. faecalis ATCC 29212
[33] = ATCC29212, E. faecalis, ATCC number not given
[34] = ATCC19606, A. anitratus ATCC 19606, read-out: MIC (growth inhibition, microdilution method)
[35] = ATCC25416, B. cepacia ATCC 25416, read-out: MIC (growth inhibition, microdilution method)
[36] = ATCC13048, E. aerogenes ATCC 13048, read-out: MIC (growth inhibition, microdilution method)
[37] = ATCC25922, E. coli ATCC 25922, read-out: MIC (growth inhibition, microdilution method)
[38] = ATCC49131, K. oxytoca ATCC 49131, read-out: MIC (growth inhibition, microdilution method)
[39] = ATCC13883, K. pneumoniae ATCC 13883, read-out: MIC (growth inhibition, microdilution method)
[40] = ATCC49132, P. vulgaris ATCC 49132, read-out: MIC (growth inhibition, microdilution method)
[41] = ATCC27853, Ps. aeruginosa ATCC 27853, read-out: MIC (growth inhibition, microdilution method)
[42] = ATCC13637, S. maltophilia ATCC 13637, read-out: MIC (growth inhibition, microdilution method)
[43] = ATCC8100, S. marcescens ATCC 8100, read-out: MIC (growth inhibition, microdilution method)

Row | Compound | MIC [5, 32] [µg/mL] | MIC [5, 33] [µg/mL] | MIC [8] [µg/mL] | MIC [11] [µg/mL] | MIC, A. BAUMANII [14] [µg/mL] | MIC, B. CEPACIA [15] [µg/mL] | MIC, C. AMALONATICUS [16] [µg/mL] | MIC, C. FREUNDII [17] | MIC, C. KOSERI [18] [µg/mL] | MIC, E. AEROGENES [19] [µg/mL] | MIC, E. CLOACAE [20] [µg/mL] | MIC, K. OXYTOCA [22] [µg/mL] | MIC, K. PNEUMONIAE [23] [µg/mL] | MIC, M. MORGANII [24] [µg/mL] | MIC, P. MIRABILIS [25] [µg/mL] | MIC, P. RETTGERI [26] [µg/mL] | MIC, P. STUARTII [27] [µg/mL] | MIC, S. LIQUEFACIENS [29] [µg/mL] | MIC, S. MALTOPHILIA [30] [µg/mL] | MIC, S. MARCESCENS [31] [µg/mL] | further results
1 | Cn1nnc(-c2cc(C(=O)O)sc2C(=O)O)n1 [DNM-112, 3-(2-Methyl-2H-tetrazol-5-yl)-thiophene-2,5-dicarboxylic acid] | 8 (≈ 31.5 µM) | 8 (≈ 31.5 µM) | 16 (≈ 62.9 µM) | 16 (≈ 62.9 µM) | > 256 | > 256 | > 256 | >256 | > 256 | > 256 | > 256 | > 256 | > 256 | > 256 | > 256 | > 256 | > 256 | > 256 | > 256 | > 256 | MIC ([1]; ATCC19606, read-out: MIC (growth inhibition, microdilution method)): > 256 µg/mL; MIC ([2]; ATCC25416, read-out: MIC (growth inhibition, microdilution method)): > 256 µg/mL; MIC ([3]; ATCC13048, read-out: MIC (growth inhibition, microdilution method)): > 256 µg/mL; MIC ([4]; ATCC25922, read-out: MIC (growth inhibition, microdilution method)): > 256 µg/mL; MIC ([6]; ATCC49131, read-out: MIC (growth inhibition, microdilution method)): > 256 µg/mL; MIC ([7]; ATCC13883, read-out: MIC (growth inhibition, microdilution method)): > 256 µg/mL; MIC ([9]; ATCC49132, read-out: MIC (growth inhibition, microdilution method)): > 256 µg/mL; MIC ([10]; ATCC27853, read-out: MIC (growth inhibition, microdilution method), Ps. aeruginosa ATCC 27853): > 256 µg/mL; MIC ([12]; ATCC13637, read-out: MIC (growth inhibition, microdilution method)): > 256 µg/mL; MIC ([13]; ATCC8100, read-out: MIC (growth inhibition, microdilution method)): > 256 µg/mL; MIC, E. COLI [21]: > 256 µg/mL; MIC, P. VULGARIS [28]: > 256 µg/mL
2 | O=C(O)c1cc(-c2nn[nH]n2)cs1 [DNM-116, 4-(2H-Tetrazol-5-yl)-thiophene-2-carboxylic acid] | 8 (≈ 40.8 µM) | 8 (≈ 40.8 µM) | > 32 | 32 (≈ 163 µM) | 16 (≈ 81.6 µM) | 16 (≈ 81.6 µM) | 16 (≈ 81.6 µM) | 16 | 16 (≈ 81.6 µM) | 16 (≈ 81.6 µM) | 16 (≈ 81.6 µM) | 16 (≈ 81.6 µM) | 16 (≈ 81.6 µM) | 16 (≈ 81.6 µM) | 16 (≈ 81.6 µM) | 16 (≈ 81.6 µM) | 16 (≈ 81.6 µM) | 16 (≈ 81.6 µM) | 16 (≈ 81.6 µM) | 16 (≈ 81.6 µM) | MIC [1, 34]: 16 µg/mL (≈ 81.6 µM); MIC [2, 35]: 16 µg/mL (≈ 81.6 µM); MIC [3, 36]: 16 µg/mL (≈ 81.6 µM); MIC (growth inhibition, microdilution method) ([4]; E. coli ATCC 25922): 8 µg/mL (≈ 40.8 µM); MIC [4, 37]: 16 µg/mL (≈ 81.6 µM); MIC [6, 38]: 16 µg/mL (≈ 81.6 µM); MIC [7, 39]: 16 µg/mL (≈ 81.6 µM); MIC [9, 40]: 32 µg/mL (≈ 163 µM); MIC [10, 41]: 16 µg/mL (≈ 81.6 µM); MIC (growth inhibition, microdilution method) [11]: >32 µg/mL; MIC [12, 42]: 16 µg/mL (≈ 81.6 µM); MIC [13, 43]: 16 µg/mL (≈ 81.6 µM)
3 | O=C(O)c1cc(-c2nnn[nH]2)c(-c2ccc(F)cc2)s1 [DNM-121, 5-(4-Fluoro-phenyl)-4-(1H-tetrazol-5-yl)-thiophene-2-carboxylic acid] | 8 (≈ 27.6 µM) | 8 (≈ 27.6 µM) | 64 (≈ 220 µM) | 64 (≈ 220 µM) | 64 (≈ 220 µM) | 64 (≈ 220 µM) | 64 (≈ 220 µM) | 64 | 64 (≈ 220 µM) | 64 (≈ 220 µM) | 64 (≈ 220 µM) | 64 (≈ 220 µM) | 64 (≈ 220 µM) | 64 (≈ 220 µM) | 64 (≈ 220 µM) | 64 (≈ 220 µM) | 64 (≈ 220 µM) | 64 (≈ 220 µM) | 64 (≈ 220 µM) | 64 (≈ 220 µM) | MIC [1, 34]: 64 µg/mL (≈ 220 µM); MIC [2, 35]: 64 µg/mL (≈ 220 µM); MIC [3, 36]: 64 µg/mL (≈ 220 µM); MIC [4, 37]: 64 µg/mL (≈ 220 µM); MIC [6, 38]: 64 µg/mL (≈ 220 µM); MIC [7, 39]: 64 µg/mL (≈ 220 µM); MIC [9, 40]: 64 µg/mL (≈ 220 µM); MIC [10, 41]: 64 µg/mL (≈ 220 µM); MIC (growth inhibition, microdilution method) [11]: 32 µg/mL (≈ 110 µM); MIC [12, 42]: 64 µg/mL (≈ 220 µM); MIC [13, 43]: 64 µg/mL (≈ 220 µM); MIC, E. COLI [21]: 64 µg/mL (≈ 220 µM); MIC, P. VULGARIS [28]: 64 µg/mL (≈ 220 µM)
